Data taken from patent US20250235429A1, “TREATMENT OF DISEASES VIA ADMINISTRATION OF BUNTANETAP AND AN ANTIDIABETIC AGENT” (ANNOVIS BIO, INC., priority 2024, published 2025).
Marks after values point to notes of the source that are not given here.

Columns and labels:
APP and its fragments = settings: APP/PS1 transgenic mice; cited from earlier work
tau [1] = settings: unpublished observation, Peter Davies Laboratory; cited from earlier work
[2] = cited from earlier work
[3] = test system: APP, Tau, and aSYN in the cerebrospinal fluid (CSF) of MCI subjects; settings: cited from earlier work
[4] = test system: APP/PS1 transgenic (tg) mouse model of AD; settings: cited from earlier work
[5] = test system: APP in SH-SY-5Y human neuroblastoma cells; settings: cited from earlier work
aSYN = settings: neuroblastoma cells; cited from earlier work
tau [6] = settings: Human tau mice; unpublished observation; cited from earlier work
[7] = test system: fully differentiated Down syndrome nerve cells; settings: cited from earlier work
[8] = test system: patients with mild to moderate AD; test: Phase II/III dose-ranging study of buntanetap in mild to moderate AD (ADAS-Cog 11); format: in vivo, human
Experimental: A randomized, double-blind, placebo-controlled Phase II/III study trial investigating the efficacy, safety, and tolerability of buntanetap in patients with mild to moderate AD was conducted. This was a dose-ranging study where patients received either one of three doses of buntanetap (7.5 mg, 15 mg, or 30 mg) or placebo on top of their standard of care for 12 weeks. In this study, over 700 patients were screened, a total of 353 patients were enrolled, and 325 patients completed the study across 54 sites in the US. The study included mild to moderate AD patients whose Mini Mental State Examination (MMSE) scores at baseline ranged from 14 to 24. (www.clinicaltrials.gov (NCT05686044)).
Beyond safety, the trial assessed the changes in two co-primary endpoints: Alzheimer's Disease Assessment Scale-Cognitive Subscale 11 (ADAS-Cog 11) and Alzheimer's Disease Cooperative Study Clinician's Global Impression of Change (ADCS-CGIC), which assess cognition and activities of daily living. The study monitored for safety and collected plasma to measure several biomarkers to assess the disease state, potential disease progression, and treatment effects.

[9] = test system: traumatic brain injury rats; settings: cited from earlier work
[10] = test system: Ts65dn mouse model of Down syndrome (DS); settings: cited from earlier work
[11] = test system: hippocampal slices APP/PS1 transgenic mice; test: Electrophysiological study: long-term potentiation (LTP) in hippocampal slices; format: in vivo
Experimental: Animals: Heterozygous double transgenic mice expressing both human APP (K670N:M671L) and human PS1 (M146L) (line 6.2) and their wild-type non-transgenic littermates, both males and females, were used for these experiments. They were obtained by a breeding colony maintained at the animal facility of Columbia University. They were genotyped through PCR on tail samples. Animals were injected i.p. from the age of […] for 1 month prior to starting behavioral assessment which lasted for 2 weeks during which treatment continued. Behavioral assessment examined spatial and associative memory. Finally, mice were sacrificed for electrophysiological assessment of synaptic function.
Mice were coded to blind investigators with respect to genotype and treatment. Results were expressed with Standard Error of the Mean (SEM). Level of significance was set for p<0.05. Results were analyzed by ANOVA analysis with post-hoc correction with the combination or genotype as main effect. Experiments were designed in a balanced fashion, and mice were trained and tested at each of the different conditions in 3 or 4 separate experiments.
Mice were i.p. injected with the drug from the age of 8 weeks prior to plaque appearance until euthanasia for collecting slices at the age of 14-16 weeks. The treatment with Buntanetap was daily, whereas the treatment with dulaglutide was twice a week.
Electrophysiological analysis was performed on 400 μm hippocampal slices, cut with a tissue chopper and maintained in an interface chamber at 29° C. for 90 min prior to recording. Briefly, CA1 fEPSPs were recorded by placing both the stimulating and the recording electrodes in CA1 stratum radiatum. Basal synaptic transmission was assayed, either by plotting the stimulus voltages against slopes of fEPSP, or by plotting the peak amplitude of the fiber volley against the slope of the fEPSP. For LTP experiments, a 15 min baseline was recorded every min at an intensity that evokes a response ˜35% of the maximum evoked response. LTP was induced using θ-burst stimulation (4 pulses at 100 Hz, with the bursts repeated at 5 Hz and each tetanus including 3 ten-burst trains separated by 15 see). Data was subjected to statistical analyses to determine the effects of combination on inhibiting synaptic dysfunction.

[12] = test system: human SNCAA53T tg mouse model of PD; settings: cited from earlier work

For `CN1CC[C@]2(C)c3cc(OC(=O)Nc4ccccc4)ccc3N(C)C12` (stereo partly drawn) [Buntanetap, (3aR)-1,3a,8-trimethyl-1,2,3,3a,8,8a-hexahydropyrrolo[2,3-b]indol-5-yl phenylcarbamate], the “levels of APP and all its fragments” value (APP and its fragments) is given as “lowers”, the tau in vitro (tau [1]) is given as “lowers” and the “half-life in CSF” value ([2]; MCI subjects) is given as greater than 12 h. The tolerability ([2]; doses up to 4×60 mg daily X 10 days) was “well tolerated”, the “concentration in brain relative to plasma” value ([2]; in vivo) was “about 8 times” and the terminal half-life ([2]; plasma, all doses, biphasic clearance) was 4.3 to 4.7 h. For the same compound, the “levels of APP, Tau, and aSYN in the cerebrospinal fluid (CSF)” value ([3]; MCI subjects, 4×60 mg/day) was “normalized”, the “CSF A342” value ([3]; MCI subjects) was “trend to lower” and the “CSF levels of sAPPa, sAPPP, t-tau, p-tau, and specific inflammatory markers” value ([3]; MCI subjects) was “significantly lowered”. For the same compound, the inflammation ([3]; human CSF of MCI subjects) was “lowered”, the memory and learning ([4]; APP/PS1 transgenic (tg) mouse model of AD) was “Restored” and the impaired synaptic transmission ([4]; hippocampus of APP/PS1 tg mice) was “Normalized”. For the same compound, the “levels of APP in vitro” value [5] was “lowers”, the aSYN in vitro (aSYN) was “lowers” and the tau in vivo (tau [6]) was “lowers”. For the same compound, the “anterograde and retrograde vesicle transport” value [7] was “Normalized”, the “Non-Responders (Number)” value ([8]; 7.5 mg) was 5 and the “Non-Responders (Percentage)” value ([8]; 7.5 mg) was “(26.32%)”. The “Responders (Number)” value ([8]; 7.5 mg) was 14, the “Responders (Percentage)” value ([8]; 7.5 mg) was “(73.68%)**” and the “Non-Responders (Number)” value ([8]; 15 mg) was 7. For the same compound, the “Non-Responders (Percentage)” value ([8]; 15 mg) was “(28.00%)”, the “Responders (Number)” value ([8]; 15 mg) was 18 and the “Responders (Percentage)” value ([8]; 15 mg) was “(72.00%)**”. For the same compound, the “Non-Responders (Number)” value ([8]; 30 mg) was 3, the “Non-Responders (Percentage)” value ([8]; 30 mg) was “(12.50%)” and the “Responders (Number)” value ([8]; 30 mg) was 21. For the same compound, the “Responders (Percentage)” value ([8]; 30 mg) was “(87.50%)***”, the “difference in the proportion of participants who improved relative to placebo” value ([8]; 30 mg group) was “three-fold” and the “improvement in ADAS-Cog 11 scores in each treatment dose relative to placebo” value ([8]; patients with mild AD, 7.5, 15, 30 mg, 12 weeks) was “significantly higher improvement”. The improvement in cognition ([8]; population with confirmed early AD (FIG. 2B)) was “dose-dependent improvement”, the inflammation ([9]; rat brain after TBI) was “lowered” and the impaired synaptic transmission ([9]; rat striatum after traumatic brain injury (TBI)) was “Normalized”. The nerve cells ([9]; rat substantia Ingra after TBI) was “protected”, the memory and learning ([9]; traumatic brain injury rats) was “Preserved” and the memory and learning [10] was “Restored”. For the same compound, the “% Improvement (Residual Potential)” value ([11]; APP/PS1, Buntanetap 1 mg/kg) was 4.8%, the “Residual Potential (mean)” value ([11]; APP/PS1, Buntanetap 1 mg/kg i.p. daily) was 141.55 and the “Residual Potential (mean)” value ([11]; APP/PS1, Buntanetap 10 mg/kg i.p. daily) was 213.56. For the same compound, the “% Improvement (Residual Potential)” value ([11]; APP/PS1, Buntanetap 10 mg/kg, 100% = wt veh minus APP/PS1 veh) was 90.5%, the “impairment of synaptic plasticity measured through Long-term potentiation (LTP)” value ([11]; APP/PS1 mice, Buntanetap 1 mg/Kg and/or dulaglutide 0.1 mg/Kg) was “did not ameliorate” and the colonic motility [12] was “Restored”.
